In one assay the test system is T1, PDE4.
T1 construct: The PDE4 enzyme was purified from U937 cells that are the cells derived from lymphoma
The assay can be described thus: Inhibitory action of PDE4 enzyme activity (PDE4 purified from U937 cells). In kind it is biochemical. Particulars: PDE4 fraction purified from U937 cells; [3H]-cAMP substrate; 30° C., 10 minutes. The protocol:
(1) Purification of PDE4 from U937 Cells
The PDE4 enzyme was purified from U937 cells that are the cells derived from lymphoma. U937 cells were suspended in buffer solution A (20 mM Tris-HCl(pH 6.5), 1 mM MgCl2, 0.1 mM EGTA, 3 mM 2-mercaptoethanol) containing protease. inhibitor cocktail (manufactured by Sigma Co.), and a soluble fraction was obtained by centrifugation after ultrasonic disintegration (100,000 G, 30 minutes, 4° C.). […] Each fraction was tested for the cAMP metabolized PDE activity to identify the fractions containing PDE4 enzyme.
(2) Measurement of Inhibitory Activity of PDE4 Enzyme Activity
A desired concentration of the test compound was allowed to react in a reaction mixture (100 μL; 40 mM Tris-HCl (pH 7.4), 5 MM MgCl2, 4 mM 2-mercaptoethanol, […] cAMP, 0.83 μCi [^3H]-cAMP and PDE4 fraction) at 30° C. for 10 minutes. The enzyme reaction was stopped by adding 25 μL of trichloroacetic acid to the reaction mixture. The reaction solution was charged on a neutral alumina column equilibrated with 0.1 M of 2-[[tris(hydroxylmethyl)methyl]-amino]-1-ethanesulfonic acid (TES) buffer (pH 8.0) and, after washing the column with a sufficient amount of 0.1 M TES buffer solution, the column was eluted with 2N NaOH. A 500 μL aliquot of the eluate containing [^3H]-5′AMP product was filled in a scintillation vial containing the scintillation cocktail (5 ml, manufactured by Perkin Elmer Co.) to measure radioactivity. […] The inhibitory action of PDE4 enzyme activity was expressed by IC50 (nM). Ex. No. in Table 8 denotes the example No.

For assay [1], the system named is TNF-α production in LPS-stimulated mouse mononuclear cells. The assay can be described thus: Inhibitory action of TNF-α production using mouse mononuclear cells (in vitro). In kind it is cell-based. The settings on record: mouse mononuclear cells from peripheral blood of C3H/He mouse; LPS 5 μg/mL, 21 hours; TNF-α ELISA; read-out: IC50 (nM), suppression action of TNF-α production. The protocol:
Mouse mononuclear cells were isolated from the peripheral blood of C3H/He mouse (manufactured by Japan SLC Co., male), and were suspended in a culture medium (trade name RPMI 1640 manufactured by Gibco Co.) containing 10% bovine serum. The cells were seeded in a 96 well plate as 50,000 cells/well, the test compound was added at a desired concentration, and the plate was allowed to stand in an incubator containing 5% CO2 at .37° C. for 15 minutes. LPS was added thereafter at a final concentration of 5 μg/mL, and the plate was allowed to stand in the incubator for 21 hours.
The culture medium containing produced TNF-α was retrieved, and the amount of TNF-α was measured according to the protocol attached to mouse TNF-α ELISA kit (manufactured by R & D Systems Co.). […] The suppression action of TNF-α was expressed-by […] (nM). Ex. No. in Table 9 denotes the example No.
A general note: ELISA stands for enzyme-linked immunosorbent assay.

Assay [2] concerns TNF-α production induced by LPS. Nature of the assay: Inhibitory action of TNF-α production (in vivo) induced by LPS using mouse. The settings on record: C3H/He mouse; orally administered 60 minutes before LPS 10 μg intraperitoneally; plasma TNF-α 90 minutes after LPS; read-out: ED50 (mg/kg), suppression action of TNF-α production. The protocol:
C3H/He mouse (manufactured by Japan SLC Co., male) was used as a test animal. A desired concentration of the test sample was suspended in 0.5% methyl cellulose solution. The weight of the mouse was measured, and the test compound solution was orally administered at a dosage of 10 mL/kg while only 0.5% methyl cellulose was administered to the reference group. One group contained 5 to 7 mice. LPS was dissolved in physiological saline, and 10 μg was intraperitoneally administered to each mouse. The test compound was administered first, then LPS was administered 60 minutes thereafter. After 90 minutes, the blood was sampled from the large abdominal vein with the heparin, and a plasma was obtained by centrifugation. The content of TNF-α in the plasma was measured according to the protocol attached to TNF-α ELISA kit (manufactured by R & D System Co.). […] The suppression action of TNF-α production was represented by ED50 (mg/kg). Ex. No. in Table 11 denotes the example No.

The term IC50 denotes the concentration needed to halve the response being measured.

Turning to `C=CCc1c(C)nc(-c2cccs2)nc1Nc1ccc2cc(C(=O)O)ccc2c1` [Example 3], the figures for the IC50 (with PDE4; in assay [1]) were 356 nM and 1900 nM, respectively.

As for `CCc1c(C)nc(-c2cccs2)nc1Nc1ccc(C(=O)O)cc1` [Example 5], the IC50 with PDE4 amounted to 1390 nM; in assay [1] it was 265 nM.

In the case of `CCc1c(C)nc(-c2cccs2)nc1Nc1ccc(CC(=O)O)cc1` [Example 6], the IC50 was 2940 nM with PDE4 and 4930 nM in assay [1].

For the compound `CCc1c(C)nc(-c2cccs2)nc1Nc1ccc2cc(C(=O)O)ccc2c1` [Example 7], the IC50 in the assay on PDE4 stood at 409 nM; in assay [1] it was 267 nM.

In the case of `CCc1c(C)nc(-c2ccsc2)nc1Nc1ccc2cc(C(=O)O)ccc2c1` [Example 20], the IC50 in the assay on PDE4 was 191 nM; in assay [1], 289 nM.

Consider `C=CCc1c(C)nc(-c2ccoc2)nc1Nc1ccc2cc(C(=O)O)ccc2c1` [Example 23], for which the values for the IC50 (in the assay on PDE4; in assay [1]) were 633 nM and 2110 nM, respectively.

Turning to `CCc1c(C)nc(-c2ccoc2)nc1Nc1ccc(C(=O)O)cc1` [Example 24], the IC50 is 3250 nM with PDE4 and 865 nM in assay [1].

With `CCc1c(C)nc(-c2ccoc2)nc1Nc1ccc2cc(C(=O)O)ccc2c1` [Example 26], the IC50 stood at 312 nM in the assay on PDE4 and 219 nM in assay [1].

Turning to `CCc1c(C)nc(-c2ccc(C(=O)OC)s2)nc1Nc1ccc(C(=O)O)cc1` [Example 50], the IC50 in assay [1] is 249 nM.

With `C=CCc1c(CC)nc(-c2ccc(OC)s2)nc1Nc1ccc(C(=O)O)cc1` [Example 54], in assay [1], the IC50 was 239 nM.

`C=CCc1c(CCC)nc(-c2ccsc2)nc1Nc1ccc(C(=O)O)cc1` [Example 68]: the IC50 in assay [1] was determined as 247 nM.

As to `CCCc1nc(-c2ccsc2)nc(Nc2ccc3cc(C(=O)O)ccc3c2)c1CC` [Example 73], the IC50 in assay [1] was found to be 211 nM.

Compound `CCc1c(C)nc(-c2ccc(SC)s2)nc1Nc1ccc2cc(C(=O)O)ccc2c1` [Example 79] returned an IC50 with PDE4 of 117 nM.

For `CCc1nc(-c2ccc(OC)s2)nc(Nc2ccc(C(=O)O)cc2)c1CC` [Example 80], the half-maximal inhibitory concentration (IC50) in assay [1] came to 73 nM.

Consider `CCc1nc(-c2ccc(OC)s2)nc(Nc2ccc3cc(C(=O)O)ccc3c2)c1CC` [Example 82], for which the half-inhibitory concentration (IC50) in the assay with PDE4 was determined as 90 nM; in assay [1], 57 nM.

With `CCc1nc(-c2ccoc2)nc(Nc2ccc(C(=O)O)cc2)c1CC` [Example 86], in assay [1], the IC50 came to 67 nM. Also, the ED50 in assay [2] came out at 8 mg/kg.

Regarding `C=CCc1c(CC)nc(-c2ccoc2)nc1Nc1ccc(C(=O)O)cc1` [Example 103], the ED50 in assay [2] turned out to be 37 mg/kg.

`C=CCc1c(CC)nc(-c2ccoc2)nc1Nc1ccc2cc(C(=O)O)ccc2c1` [Example 105] came in with an IC50 in the assay on PDE4 of 116 nM.

For the compound `CCc1nc(-c2ccc(C)s2)nc(Nc2ccc(CC(=O)O)cc2)c1CC` [Example 110], the ED50 in assay [2] turned out to be 31 mg/kg.

`CCc1nc(-c2ccc(C)s2)nc(Nc2ccc3cc(C(=O)O)ccc3c2)c1CC` [Example 111]: in assay [1], the IC50 turned out to be 58 nM. In assay [2], the ED50 stood at 15 mg/kg.

For the compound `CCc1c(C)nc(-c2cccs2)nc1Nc1ccc(CC(=O)Nc2ccccc2OC)cc1` [Example 113], in assay [1], the IC50 is 34 nM.

Consider `CCc1c(C)nc(-c2cccs2)nc1Nc1ccc(CC(=O)NO)cc1` [Example 116], for which the IC50 in assay [1] came to 10 nM. Besides, the ED50 in assay [2] is 12 mg/kg.

On to `CCc1nc(-c2ccc(SC)s2)nc(Nc2ccc(CC(=O)O)cc2)c1CC` [Example 128], for which the ED50 in assay [2] stood at 24 mg/kg.

As to `CCc1nc(-c2ccc(SC)s2)nc(Nc2ccc3cc(C(=O)O)ccc3c2)c1CC` [Example 129], the IC50 in assay [1] is 85 nM.

For the compound `CCc1nc(-c2cc(C)c(C)s2)nc(Nc2ccc3cc(C(=O)O)ccc3c2)c1CC` [Example 155], the IC50 with PDE4 is 845 nM.

As for `CCc1nc(-c2cc(C)c(C)o2)nc(Nc2ccc3cc(C(=O)O)ccc3c2)c1CC` [Example 157], in assay [1], the IC50 worked out at 80 nM.

`CCc1c(C)nc(-c2ccc(Br)s2)nc1Nc1ccc(CC(N)=O)cc1` [Example 181]: the IC50 in assay [1] was determined as 57 nM.

Consider `C=CCc1c(CC)nc(-c2cc(OC)cs2)nc1Nc1ccc2cc(C(=O)O)ccc2c1` [Example 185], for which, in the assay with PDE4, the IC50 is 156 nM.

Turning to `CCc1nc(-c2ccco2)nc(Nc2ccc(C(=O)O)cc2)c1CC` [Example 186], in assay [1], the IC50 is 80 nM.

In the case of `CCc1c(C)nc(-c2ccc(Br)s2)nc1Nc1ccc(CC(=O)NO)cc1` [Example 192], the IC50 with PDE4 was 89 nM.

Consider `CCc1ccc(-c2nc(CC)c(CC)c(Nc3ccc4cc(C(=O)O)ccc4c3)n2)s1` [Example 198], for which the IC50 with PDE4 worked out at 105 nM.

As to `C=CCc1c(CC)nc(-c2ccc(CC)s2)nc1Nc1ccc2cc(C(=O)O)ccc2c1` [Example 201], it took 133 nM to reach half-maximal inhibition in the assay on PDE4 (IC50).

For the compound `CCc1c(C)nc(-c2ccc(OC)s2)nc1Nc1ccc(CC(=O)NO)cc1` [Example 203], the IC50 in assay [1] stood at 86 nM.

For the compound `CCc1c(C)nc(-c2ccc(C)s2)nc1Nc1ccc(CC(=O)O)cc1` [Example 205], the ED50 in assay [2] was 21 mg/kg.

`C=CCc1c(CC)nc(-c2ccc(C)s2)nc1Nc1ccc2cc(C(=O)O)ccc2c1` [Example 209] came in with an IC50 in the assay on PDE4 of 192 nM.

As for `CCc1nc(-c2ccc(Br)s2)nc(Nc2ccc(C(=O)O)cc2)c1CC` [Example 220], the IC50 in assay [1] amounted to 59 nM. For the same compound, the ED50 in assay [2] is 41 mg/kg.

Regarding `CCc1nc(-c2ccc(Br)s2)nc(Nc2ccc(CC(=O)O)cc2)c1CC` [Example 221], in assay [1], the IC50 came out at 53 nM. Also, the ED50 in assay [2] was found to be 24 mg/kg.

`CCc1nc(-c2ccc(Cc3ccccc3)s2)nc(Nc2ccc3cc(C(=O)O)ccc3c2)c1CC` [Example 234]: the IC50 in assay [1] stood at 48 nM.

Regarding `CCc1nc(-c2cc(C)c(Br)s2)nc(Nc2ccc(C(=O)O)cc2)c1CC` [Example 238], the ED50 in assay [2] amounted to 20 mg/kg.

In the case of `CCc1nc(-c2cc(C)c(Br)s2)nc(Nc2ccc(CC(=O)O)cc2)c1CC` [Example 239], the ED50 in assay [2] was determined as 22 mg/kg.

Regarding `C=CCc1c(C)nc(-c2ccc(Br)s2)nc1Nc1ccc(CC(=O)O)cc1` [Example 241], in assay [2], the ED50 was found to be 39 mg/kg.

In the case of `CCc1c(C)nc(-c2ccc(Cl)s2)nc1Nc1ccc(CC(=O)O)cc1` [Example 253], the IC50 in assay [1] stood at 504 nM. Besides, the ED50 in assay [2] was 14 mg/kg.

Consider `C=CCc1c(C)nc(-c2ccc(Cl)s2)nc1Nc1ccc(CC(=O)O)cc1` [Example 254], for which, in assay [2], the ED50 worked out at 38 mg/kg.

Take `C=CCc1c(C)nc(-c2cc(C)c(Br)s2)nc1Nc1ccc(CC(=O)O)cc1` [Example 274]: the ED50 in assay [2] turned out to be 25 mg/kg.

Regarding `CCc1nc(-c2ccc(Cl)s2)nc(Nc2ccc(CC(=O)O)cc2)c1CC` [Example 289], in assay [2], the ED50 turned out to be 18 mg/kg.

`CCc1c(C)nc(-c2cc(C)c(I)s2)nc1Nc1ccc(CC(=O)O)cc1` [Example 292]: the ED50 in assay [2] came to 25 mg/kg.

As for `CCc1nc(-c2cc(C)c(I)s2)nc(Nc2ccc(CC(=O)O)cc2)c1CC` [Example 293], in assay [2], the ED50 worked out at 18 mg/kg.

For the compound `CCc1c(C)nc(-c2cccs2)nc1Nc1ccc(CC(=O)O)cc1F` [Example 344], in assay [2], the ED50 is 27 mg/kg.

`CCc1c(C)nc(-c2ccc(I)s2)nc1Nc1ccc(CC(=O)O)cc1F` [Example 345]: in assay [2], the ED50 came out at 37 mg/kg.

As to `CCc1c(C)nc(-c2ccc(F)s2)nc1Nc1ccc(CC(=O)O)cc1` [Example 373], the ED50 in assay [2] was determined as 19 mg/kg.

`CCc1c(C)nc(-c2ccc(F)s2)nc1Nc1ccc(CC(=O)O)cc1F` [Example 376]: the ED50 in assay [2] came to 12 mg/kg.

Take `Cc1nc(-c2ccc(Cl)s2)nc(Nc2ccc(CC(=O)O)cc2)c1CO` [Example 386]: in assay [2], the ED50 stood at 50 mg/kg.

(Values after patent US20060293343A1, “Pyrimidine derivatives” (Asahi Kasei Pharma Corporation, priority 2005, published 2006).)
